Results published in US4909940A, “Extraction of process chemicals from labile biological mixtures with organic alcohols or with halogenated hydrocarbons” (priority 1987, dated 1990).
Like-named read-outs stand apart in the source and are kept apart here. Blank lines part the entries; values can stand above or below the compound they belong to.

Key:
AHF [1] = test: AHF retention after extraction of AHF concentrate with alcohols; format: biochemical, human; conditions: 0.3% TNBP and 1% TRITON X-45; 10% (w/v) alcohol, 30 minutes, ambient
[2] = Aqueous solubility of alcohols; conditions: water
[3] = Removal of TRITON X-45 from AHF concentrate with alcohols; conditions: 0.3% TNBP and 1% TRITON X-45; 10% (w/v) alcohol, 30 minutes, ambient
[4] = Extraction of process chemicals from saline: TRITON X114; conditions: 1% TRITON X114 in saline
[5] = Extraction of process chemicals from saline: TWEEN 80; conditions: 1% TWEEN 80 in saline
[6] = Extraction of process chemicals from saline: TRITON X45; conditions: 1% TRITON X45 in saline
AHF [7] = test: Recovery of AHF procoagulant activity following extraction; format: biochemical; conditions: for AHF recovery: AHF concentrate or plasma; for AHF % Recovery / AHF Activity After: 5% extractant
AHF [8] = test: AHF retention after extraction of AHF concentrate with halogenated hydrocarbons; format: biochemical, human; conditions: 5% (w/v) halogenated hydrocarbon, 30 minutes, ambient
[9] = Removal of TNBP from AHF concentrate with halogenated hydrocarbons; conditions: 0.3% TNBP; 5% (w/v) halogenated hydrocarbon, 30 minutes, ambient
[10] = Extraction of process chemicals from plasma: TRITON X114; conditions: 1% TRITON X114 in plasma
Description: (§1) The results are in general agreement with those observed extracting from saline.

[11] = Extraction of process chemicals from plasma: TWEEN 80; conditions: 1% TWEEN 80 in plasma
Description: as §1

[12] = Extraction of process chemicals from plasma: TNBP; conditions: 2% TNBP in plasma
Description: as §1

[13] = Extraction of process chemicals from plasma: TRITON X100; conditions: 1% TRITON X100 in plasma
Description: as §1

[14] = Merocyanine removal from saline on extraction with FORANE; conditions: 10% FORANE
Factor IX = test: Protein functional activity after extraction of plasma: Factor IX; format: biochemical; conditions: 10% extractant, 30 minutes, ambient
[15] = Removal of TRITON X-45 from cryoprecipitate; conditions: extracted two times, 10% FORANE or 10% FORANE and 5% heptanol; lyophilized
[16] = Removal of TWEEN 80 from AHF concentrate with halogenated hydrocarbons; conditions: 1% TWEEN 80; 5% (w/v) halogenated hydrocarbon, 30 minutes, ambient
red blood cells = test: Red blood cell retention on extraction with FORANE; parameters: species or system human; conditions: 10% FORANE
AHF [17] = test: Protein functional activity after extraction of plasma: AHF; format: biochemical; conditions: 10% extractant, 30 minutes, ambient
[18] = Extraction of process chemicals from plasma: TRITON X45; conditions: 1% TRITON X45 in plasma
Description: as §1

[19] = Extraction of process chemicals from saline: TNBP; conditions: 1% TNBP in saline
[20] = Extraction of process chemicals from saline: TRITON X100; conditions: 1% TRITON X100 in saline
[21] = Removal of TNBP from cryoprecipitate; conditions: extracted two times, 10% FORANE or 10% FORANE and 5% heptanol; lyophilized
AHF [22] = test: AHF activity retained after depyrogenation extraction; format: biochemical; conditions: 10% (v/v) extractant, 30 minutes, 24° C.
Description: AHF concentrate containing 6.4 ng/ml of endotoxin was extracted by mechanically shaking with 10% (v/v) 2-octanol or "FORANE" for 30 minutes at 24° C. After separation of the extractant by centrifugation, the pyrogen level was determined by the Limulus Amebocyte Lysate assay with a sensitivity of 0.025 ng/ml of endotoxin. The effect of these treatments is shown below in Table XI. […] More than 90% of the original AHF activity was retained following the extraction.

AHF [23] = test: AHF recovery after extraction of cryoprecipitate; format: biochemical; conditions: extracted two times, 10% FORANE or 10% FORANE and 5% heptanol; sterile filtered, lyophilized
[24] = Removal of TRITON X-45 from AHF concentrate with halogenated hydrocarbons; conditions: 1% TRITON X-45; 5% (w/v) halogenated hydrocarbon, 30 minutes, ambient
Antithrombin III = test: Protein functional activity after extraction of plasma: Antithrombin III; format: biochemical; conditions: 10% extractant, 30 minutes, ambient
[25] = Extraction of process chemicals from saline: Nonoxynol; conditions: 1% Nonoxynol in saline; 5% extractant
[26] = water

SMILES: CCCCCCCCCO [1-nonanol]
- AHF (% Retention) (AHF [1]): 100%
- TRITON X-45 (% Removal) [3]: 100%

SMILES: FC(F)OC(Cl)C(F)(F)F (centres unmarked) [FORANE, 1-chloro-2,2,2-trifluoroethyl difluoromethyl ether]
- Percent Extraction ([4]; 5% extractant): 99%
- Percent Extraction ([4]; 20% extractant): 99%
- Percent Extraction ([5]; 5% extractant): 85%
- Percent Extraction ([5]; 20% extractant): 87%
- Percent Extraction ([6]; 5% extractant): 99%
- Percent Extraction ([6]; 20% extractant): 99%
- AHF recovery (AHF [7]): ~100%
- AHF % Recovery (AHF [7]; AHF concentrate): 102%
- AHF Activity After (AHF [7]; AHF concentrate): 2.69 units/mL
- % Retention AHF (AHF [8]): 100%
- Percent Removal TNBP [9]: 99%
- Percent Extraction ([10]; 5% extractant): 96%
- Percent Extraction ([10]; 20% extractant): 96%
- Percent Extraction ([11]; 20% extractant): 66%
- Percent Extraction ([12]; 5% extractant): 94%
- Percent Extraction ([12]; 20% extractant): 96%
- Percent Extraction ([13]; 5% extractant): 95%
- Percent Extraction ([13]; 20% extractant): 96%
- Merocyanine % Removal [14]: 83%
- % Retention Factor IX (Factor IX): 99%
- Percent Removal TRITON X-45 [15]: 96%
- Percent Removal TWEEN 80 [16]: 87%
- Red Blood Cell Retention (red blood cells): 97%
- % Retention AHF (AHF [17]): 98%
- Percent Extraction ([18]; 5% extractant): 91%
- Percent Extraction ([18]; 20% extractant): 99%
- Percent Extraction ([19]; 5% extractant): 99%
- Percent Extraction ([19]; 20% extractant): 99%
- Percent Extraction ([20]; 5% extractant): 99%
- Percent Extraction ([20]; 20% extractant): 99%
- Percent Removal TNBP [21]: 99.88%
- original AHF activity retained (AHF [22]): More than 90%
- AHF recovery (AHF [23]): 95%
- Percent Removal TRITON X-45 [24]: 99%
- % Retention Antithrombin III (Antithrombin III): 100%

SMILES: FC(F)(F)C(F)(F)C(F)(F)C(F)(F)C(F)(F)C(F)(F)F [Perfluorohexane]
- % Retention AHF (AHF [8]): 98%
- Percent Removal TNBP [9]: 27%
- Percent Removal TWEEN 80 [16]: 0%
- Percent Removal TRITON X-45 [24]: 0%

SMILES: FC(F)(Cl)C(F)(Cl)Cl [1,2,2-Trifluorotrichloroethane, 1,2,2-trifluorotrichloroethane]
- % Retention AHF (AHF [8]): 98%
- Percent Removal TNBP [9]: 93%
- Percent Removal TWEEN 80 [16]: 3%
- Percent Removal TRITON X-45 [24]: 8%

Continued, in another order:

- Aqueous Solubility [2]: 2.0 g %
SMILES: CC(C)CCO [isoamyl alcohol]
- AHF (% Retention) (AHF [1]): 1%
- TRITON X-45 (% Removal) [3]: 100%

- Aqueous Solubility [2]: 0.05 g %
SMILES: CCCCCCC(C)O (centres unmarked) [2-octanol]
- Percent Extraction ([4]; 5% extractant): 94%
- AHF (% Retention) (AHF [1]): 93%
- Percent Extraction ([5]; 5% extractant): 0-12%
- Percent Extraction ([6]; 5% extractant): 83-96%
- AHF recovery (AHF [7]): approximately 90%
- AHF % Recovery (AHF [7]; AHF concentrate): 89%
- AHF Activity After (AHF [7]; AHF concentrate): 2.35 units/mL
- AHF % Recovery (AHF [7]; plasma): 91%
- AHF Activity After (AHF [7]; plasma): 1.15 units/mL
- Percent Extraction ([10]; 5% extractant): 33%
- Percent Extraction ([11]; 5% extractant): 21%
- Percent Extraction ([12]; 5% extractant): 98%
- Percent Extraction ([13]; 5% extractant): 19%
- % Retention Factor IX (Factor IX): 99%
- % Retention AHF (AHF [17]): 95%
- Percent Extraction ([18]; 5% extractant): 62%
- Percent Extraction ([19]; 5% extractant): 99%
- Percent Extraction ([20]; 5% extractant): 60%
- original AHF activity retained (AHF [22]): More than 90%
- Percent Extraction [25]: 49%
- TRITON X-45 (% Removal) [3]: 100%
- % Retention Antithrombin III (Antithrombin III): 100%

- Aqueous Solubility [26]: 2.3 g %
SMILES: CCCCCO [amyl alcohol]
- AHF (% Retention) (AHF [1]): 1%
- TRITON X-45 (% Removal) [3]: 100%

- Aqueous Solubility [2]: 0.05 g %
SMILES: CCCCCCCCO [1-octanol]
- AHF (% Retention) (AHF [1]): 96%
- TRITON X-45 (% Removal) [3]: 100%
